For one data set, the target named is T1, A1 adenosine receptor (Mesocricetus auratus, UniProt A0A1U8BVR4).
T1 construct: A1 adenosine receptor sites on the membranes of DDT cells; endogenous in cells; host or cells: DDT cells (DDT1, hamster vas deferens smooth muscle cell line), membrane preparation
T1 sequence (A0A1U8BVR4 1-326): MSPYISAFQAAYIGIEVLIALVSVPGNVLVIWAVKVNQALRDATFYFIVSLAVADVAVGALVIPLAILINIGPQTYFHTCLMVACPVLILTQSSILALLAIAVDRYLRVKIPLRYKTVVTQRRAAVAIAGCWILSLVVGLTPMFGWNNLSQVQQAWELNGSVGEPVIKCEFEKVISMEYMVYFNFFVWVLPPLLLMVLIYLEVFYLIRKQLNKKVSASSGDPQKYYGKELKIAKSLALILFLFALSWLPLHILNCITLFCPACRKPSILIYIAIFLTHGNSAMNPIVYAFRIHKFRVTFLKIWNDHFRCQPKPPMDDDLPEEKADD
Put plainly: Competitive radioligand binding assay, A1 binding affinity, DDT1 cell membranes. Also noted: species or system hamster. Conditions: membranes of DDT cells, tritiated radioligand (3H-CPA) 1.5 nM, 23° C. 90 minutes. How it is done:
DDT cells (hamster vas deferens smooth muscle cell line) were grown as monolayers in petri dishes using Dulbecco's Modified Eagle's Medium (DMEM) containing 2.5 μg mL^−1 amphotericin B, 100 U mL^−1 penicillin G, 0.1 mg mL^−1 streptomycin sulfate and 5% fetal bovine serum in a humidified atmosphere of 95% air and 5% CO2. Cells were subcultured twice weekly by dispersion in Hank's Balanced Salt Solution (HBSS) without the divalent cations and containing 1 mM EDTA. The cells were then seeded in growth medium at a density of 1.2×10^5 cells per plate and experiments were performed 4 days later at approximately one day preconfluence.
Attached cells were washed twice with HBSS (2×10 mL), scraped free of the plate with the aid of a rubber policeman in 5 mL of 50 mM Tris-HCl buffer pH 7.4 at 4° C. and the suspension was homogenized for 10 s. The suspension was then centrifuged at 27,000×g for 10 min. The pellet was resuspended in homogenization buffer by vortexing and centrifuged again as described above. The final pellet was resuspended in 1 vol of 50 mM Tris-HCl buffer pH 7.4 containing 5 mM MgCl2 for A1 adenosine receptor assays. For the [^35S]GTPγS binding assay the final pellet was resuspended in 50 mM Tris-HCl pH 7.4 containing 5 mM MgCl2, 100 mM NaCl and 1 mM dithiothreitol. This membrane suspension was then placed in liquid nitrogen for 10 min and stored at −80° C. Aliquots of the membrane suspension were later thawed and used for assays. The protein content was determined with a Bradford™ Assay Kit using bovine serum albumin as standard.
Briefly, 50-70 ug of membrane protein were incubated in a mixture containing 2U/ml adenosine deaminase and 10 μM GTP-γS in 50 mM Tris-HCl buffer, pH 7.4, with 1 mM EDTA in glass tubes. Stock solutions of the compounds of the invention were serially diluted (10^−10M to 10^−4M) in Tris buffer and added to the incubation mixture. […] After incubation at 23° C. 90 minutes, the reaction was stopped by filtration on a Brandel MR24 cell harvester and washing with ice-cold Tris-EDTA buffer (three times, approximate volume 10 ml/wash) over Whatman GF/B filters (presoaked for 1 h in 0.3% polyethylenimine to reduce non-specific binding). Filters were transferred to scintillation vials and 5 ml of Scintisafe (VWR, Brisbane, Calif.) was added. The amount of radioactivity retained on the filters was determined by liquid scintillation spectrometry.
As a reminder, the Ki is a measure of affinity in units of concentration, obtained from inhibition or displacement. `CCOC(=O)c1cnn(-c2nc(NC3CC4CCC3C4)c3ncn(C4O[C@H](CO)[C@@H](O)[C@H]4O)c3n2)c1` (stereo partly drawn) [XXXIII, ethyl 1-{9-[(4S,3R,5R)-3,4-dihydroxy-5-(hydroxymethyl)oxolan-2-yl]-6-(bicyclo[2.2.1]hept-2-ylamino)purin-2-yl}pyrazole-4-carboxylate] returned a Ki of 2 nM.
The same measure, in the same setting: for `O=C(O)c1cnn(-c2nc(NC3CC4CCC3C4)c3ncn(C4O[C@H](CO)[C@@H](O)[C@H]4O)c3n2)c1` (stereo partly drawn) [XXXIV, 1-{9-[(4S,3R,5R)-3,4-dihydroxy-5-(hydroxymethyl)oxolan-2-yl]-6-(bicyclo[2.2.1]hept-2-ylamino)purin-2-yl}pyrazole-4-carboxylic acid] the value was 1 nM; for `CNC(=O)c1cnn(-c2nc(NC3CCCC3)c3ncn([C@@H]4O[C@H](CO)[C@@H](O)[C@H]4O)c3n2)c1` [XXXV, (1-{9-[(4S,3R,5R)-3,4-dihydroxy-5-(hydroxymethyl)oxolan-2-yl]-6-(cyclopentylamino)purin-2-yl}pyrazol-4-yl)-N-methylcarboxamide], 1 nM; for “(4S,3R,5R)-2-[2-(4-butyl-3,5-dimethylpyrazolyl)-6-(cyclopentylamino)purin-9-yl]-5-(hydroxymethyl)oxolane-3,4-diol [XXVIII]”, 188 nM.
In the case of “(4S,3R,5R)-2-[6-(bicyclo[2.2.1]hept-2-ylamino)-2-pyrazolylpurin-9-yl]-5-(hydroxymethyl)oxolane-3,4-diol [XXXVI]”, the affinity corresponds to a Ki of 0.4 nM.

Test system in a further data set: not given
Assay: not given
Particulars: cited from earlier work.
Turning to `Nc1ncnc2c1ncn2[C@@H]1O[C@H](CO)[C@@H](O)[C@H]1O` [adenosine], the half-life result is given as “less than 10 sec”.
